Columns and labels:
Type in all cases: cell-based, human
[1] = system: HLA-G1; test: HLA-G1 transcript expression in BMSCs by semi-quantitative RT-PCR; conditions: mean±SEM
Description: (§1) Adult BMSCs (passage 2) were obtained from Cell Applications, Inc. (San Diego, Calif.) and cultured in alpha-minimum essential medium (α-MEM) (Invitrogen) supplemented with 10% FBS and 1% penicillin/streptomycin (Invitrogen) at 37° C. in a humidified 5% CO2 incubator. At 70-80% confluence, cells were harvested with 0.25% trypsin-EDTA (Invitrogen) and expanded at 1:3 split ratios.
(§2) Demethylating treatment was carried out by culturing MSCs for 72 h with 5-aza-2′-deoxycytidine (5-aza-dC) (Sigma) at a final concentration of 10 μM or with the solvent DMSO as control.
(§3) After 72 h treatment, cells were trypsinized and total RNA extracted using RNeasy kit (Qiagen, Valencia, Calif.) according to the manufacturer's protocol. Semi-quantitative RT-PCR reactions were performed on a DNA Engine Peltier Thermal Cycler (Bio-Rad, Hercules, Calif.) as previously described. M. D. Nicola, et al., Human bone marrow stromal cells suppress T-lymphocyte proliferation induced by cellular or non-specific mitogenic stimuli, Blood 99: 3838-3843 (2002). Briefly, first strand cDNA was synthesized in 50 μl reactions from 2 μg total RNA using oligo dT primers and TaqMan reverse transcription reagents (Applied Biosystems, Foster City, Calif.). Reverse transcription (RT) reactions were carried out at 24° C. for 10 min, 48° C. for 1 h, and heat inactivation at 95° C. for 5 min. […] PCR program consisted of 94° C. for 4 min, followed by 30 cycles at 94° C. for 30 s, 60° C. for 1 min, and 72° C. for 1 min with a final extension at 72° C. for 10 min. PCR products were separated using 1.5% agarose gel in the presence of 0.5 μg/ml ethidium bromide and imaged using the FluorChem® HD2 Imaging System (Alpha Innotech Corporation, San Leandro, Calif.). Densitometry analysis was performed using AlphaEase FC software (Alpha Innotech Corporation). […]
(§4) Total RNA was extracted from both treated and untreated cells, and HLA-G1 and -G3 transcripts analyzed by semi-quantitative RT-PCR.
(§5) MSCs were treated with Valproic acid (VPA) (a known histone deacetylase inhibitor (HDAC) inhibitor) and HLA-G1, -G3 and HLA-G5 transcripts were evaluated by semi-quantitative RT-PCR.

[2] = system: HLA-G5; test: HLA-G5 mRNA level in BMSCs by RT-PCR; conditions: band intensity HLA-G5 divided by β2M, means±SEM, 3 runs
Description: as §1
as §3, with “min.” for “min. PCR products were separated using 1.5% agarose gel in the presence of 0.5 μg/ml ethidium bromide and imaged using the FluorChem® HD2 Imaging System (Alpha Innotech Corporation, San Leandro, Calif.). Densitometry analysis was performed using AlphaEase FC software (Alpha Innotech Corporation).”

[3] = system: HLA-G5; test: HLA-G5 mRNA level in AMSCs by RT-PCR; conditions: for Relative expression of HLA-G5: AMSCs, band intensity HLA-G5 divided by β2M, means±SEM, 3 runs
Description: (§6) AMSCs were isolated from adult human lipoaspirate of patients undergoing liposuction procedure. Briefly, abdominal subcutaneous adipose samples were washed with Hanks' balanced salt solutions (HBSS) (Invitrogen, Carlsbad, Calif.). After gentle shaking, the lower phase (containing stem cells, adipocytes, and blood) was washed and enzymatically dissociated with 0.075% collagenase type I (Sigma-Aldrich, St. Louis, Mo.)/HBSS for 1 h at 37° C. with gentle shaking. Collagenase was inactivated by adding fetal bovine serum (FBS) and samples were centrifuged at 400 g for 10 min at 25° C. The pellet was resuspended in RBC lysis buffer (eBioscience, San Diego, Calif.) and adherent cell masses were removed by sequential passing through 100, 70, and 40 μm mesh filters. Cells were then added into equal amounts of HISTOPAQUE-1077 (Sigma) and centrifuged at 400 g for 30 min to separate MSCs. Cells were seeded at 1-2×10^4 cells/cm^2 and grown in Dulbecco's modified eagle medium (DMEM, Invitrogen) supplemented with 10% FBS and 1% penicillin/streptomycin (Invitrogen) at 37° C. in a humidified 5% CO2 incubator and media changed every 2-3 d. After reaching 70-80% confluence, cells were washed with phosphate buffered saline (PBS), detached with 0.25% trypsin-EDTA (Invitrogen), then centrifuged and expanded at 1:3 split ratios.
After 72 h treatment, cells were trypsinized and total RNA extracted using RNeasy kit (Qiagen, Valencia, Calif.) according to the manufacturer's protocol. Semi-quantitative RT-PCR reactions were performed on a DNA Engine Peltier Thermal Cycler (Bio-Rad, Hercules, Calif.) as previously described. M. D. Nicola, et al., Human bone marrow stromal cells suppress T-lymphocyte proliferation induced by cellular or non-specific mitogenic stimuli, Blood 99: 3838-3843 (2002). Briefly, first strand cDNA was synthesized in 50 μl reactions from 2 μg total RNA using oligo dT primers and TaqMan reverse transcription reagents (Applied Biosystems, Foster City, Calif.). […]

[4] = system: HLA-G3; test: HLA-G3 transcript expression in BMSCs by semi-quantitative RT-PCR; conditions: mean±SEM
Description: as §1, §2
After 72 h treatment, cells were trypsinized and total RNA extracted using RNeasy kit (Qiagen, Valencia, Calif.) according to the manufacturer's protocol. Semi-quantitative RT-PCR reactions were performed on a DNA Engine Peltier Thermal Cycler (Bio-Rad, Hercules, Calif.) as previously described. M. D. Nicola, et al., Human bone marrow stromal cells suppress T-lymphocyte proliferation induced by cellular or non-specific mitogenic stimuli, Blood 99: 3838-3843 (2002). Briefly, first strand cDNA was synthesized in 50 μl reactions from 2 μg total RNA using oligo dT primers and TaqMan reverse transcription reagents (Applied Biosystems, Foster City, Calif.). Reverse transcription (RT) reactions were carried out at 24° C. for 10 min, 48° C. for 1 h, and heat inactivation at 95° C. for 5 min. RT samples were diluted at 1:4 in DNase, RNase free water and PCR performed in 20 μl reaction using Taq PCR master mix (Qiagen), 1 μl of diluted template, and HLA-G primers (Table 1). β-actin was used as an internal control. PCR program consisted of 94° C. for 4 min, followed by 30 cycles at 94° C. for 30 s, 60° C. for 1 min, and 72° C. for 1 min with a final extension at 72° C. for 10 min. PCR products were separated using 1.5% agarose gel in the presence of 0.5 μg/ml ethidium bromide and imaged using the FluorChem® HD2 Imaging System (Alpha Innotech Corporation, San Leandro, Calif.). Densitometry analysis was performed using AlphaEase FC software (Alpha Innotech Corporation). Relative expression levels were calculated from the ratio of integrated density values of HLA-G to that of β-actin.
as §4, §5

[5] = system: HLA-G1; test: HLA-G1 transcript expression in AMSCs by semi-quantitative RT-PCR; conditions: for Relative HLA-G1 expression: 10 μM for 72 h, ratio HLA-G to β-actin, mean±SEM, 3 experiments
Description: as §6, with “ratios. […]” for “ratios.”
After 72 h treatment, cells were trypsinized and total RNA extracted using RNeasy kit (Qiagen, Valencia, Calif.) according to the manufacturer's protocol. Semi-quantitative RT-PCR reactions were performed on a DNA Engine Peltier Thermal Cycler (Bio-Rad, Hercules, Calif.) as previously described. […] Relative expression levels were calculated from the ratio of integrated density values of HLA-G to that of β-actin.
as §4, §5

[6] = system: HLA-G3; test: HLA-G3 transcript expression in AMSCs by semi-quantitative RT-PCR; conditions: for Relative HLA-G3 expression: ratio HLA-G to β-actin, mean±SEM, 3 experiments
Description: as §6, §2
After 72 h treatment, cells were trypsinized and total RNA extracted using RNeasy kit (Qiagen, Valencia, Calif.) according to the manufacturer's protocol. Semi-quantitative RT-PCR reactions were performed on a DNA Engine Peltier Thermal Cycler (Bio-Rad, Hercules, Calif.) as previously described. M. D. Nicola, et al., Human bone marrow stromal cells suppress T-lymphocyte proliferation induced by cellular or non-specific mitogenic stimuli, Blood 99: 3838-3843 (2002). Briefly, first strand cDNA was synthesized in 50 μl reactions from 2 μg total RNA using oligo dT primers and TaqMan reverse transcription reagents (Applied Biosystems, Foster City, Calif.). Reverse transcription (RT) reactions were carried out at 24° C. for 10 min, 48° C. for 1 h, and heat inactivation at 95° C. for 5 min. […] Relative expression levels were calculated from the ratio of integrated density values of HLA-G to that of β-actin.
as §4, §5

[7] = BMSCs passage 5 (P5), 10 μM for 72 h, ratio HLA-G to β-actin, 3 experiments
[8] = BMSCs passage 10 (P10), 10 μM for 72 h, ratio HLA-G to β-actin, 3 experiments

Row | Compound | Relative HLA-G1 expression ([1]; VPA-treated BMSCs passage 5 (P5), relative to β2M (FIG. 5A)) | Relative HLA-G1 expression ([1]; VPA-treated BMSCs passage 10 (P10), relative to β2M (FIG. 5A)) | Relative expression of HLA-G5 [2] | Upregulation of HLA-G5 mRNA ([3]; AMSCs treated with VPA (Table 2)) | Relative expression of HLA-G5 [3] | Relative HLA-G3 expression ([4]; VPA-treated BMSCs passage 5 (P5), FIG. 5B) | Relative HLA-G3 expression ([4]; VPA-treated BMSCs passage 10 (P10), FIG. 5B) | Upregulation of HLA-G1 mRNA ([5]; AMSCs treated with VPA, P5 and P10 (FIG. 5C)) | Upregulation of HLA-G3 mRNA ([6]; AMSCs treated with VPA, P5 and P10 (FIG. 5D)) | Relative HLA-G1 expression [1, 7] | Relative HLA-G1 expression [1, 8] | Relative HLA-G3 expression [4, 7] | Relative HLA-G3 expression [4, 8] | Relative HLA-G1 expression ([5]; AMSCs passage 5 (P5)) | Relative HLA-G1 expression ([5]; AMSCs passage 10 (P10)) | Relative HLA-G3 expression, fold higher than untreated ([6]; AMSCs P5 and P10, 10 μM for 72 h, treated versus untreated) [fold] | Relative HLA-G3 expression ([6]; AMSCs passage 5 (P5), 10 μM for 72 h) | Relative HLA-G3 expression ([6]; AMSCs passage 10 (P10), 10 μM for 72 h)
1 | CCCC(CCC)C(=O)O [VPA, Valproic acid] | 0.08±0.02 | 0.05±0.002 | 0.006 ± 0.004 | no upregulation | 0.006 ± 0.00 | 0.04±0.01 | 0.01±0.001 | no upregulation | no upregulation |  |  |  |  |  |  |  |  | 
2 | Nc1ncn([C@H]2C[C@H](O)[C@@H](CO)O2)c(=O)n1 [5-aza-dC, 4-amino-1-(2-deoxy-b-D-erythro-pentofuranosyl)-1,3,5-triazin-2(1H)-one] |  |  | 0.009 ± 0.00 |  | 0.009 ± 0.001 |  |  |  |  | 0.16±0.01 | 0.24±0.01 | 0.33±0.08 | 0.38±0.07 | 0.15±0.02 | 0.23±0.19 | ~2 | 0.31±0.05 | 0.27±0.06

From patent US10576105B2, “Mesenchymal stem cells with enhanced immunosuppressive capability” (Escape Therapeutics, Inc., priority 2015, dated 2020)
